Square brackets hold non-standard residues; d marks the D form. Peptide text beside a SMILES is read from it. * marks the point of attachment. Palmitoyl = CCCCCCCCCCCCCCCC(=O)*; Myristoyl = CCCCCCCCCCCCCC(=O)*; Lauroyl = CCCCCCCCCCCC(=O)*; Decanoyl = CCCCCCCCCC(=O)*; Nle = CCCC[C@H](N)C(=O)O; Octanoyl = CCCCCCCC(=O)*
Columns and labels:
C57BL/6 mice = assay: Food intake in fasted mice after SC injection; type: in vivo; details: 5 mg/kg SC, 45 min after injection
Experimental: NMRI mice, C57BL/6 mice, and Wistar rats (AnLab, Prague, Czech Republic) were housed in a temperature of 23° C. and a daily cycle of 12 h light and dark (light from 6:00). They were given ad libitum water and a standard chow diet that contained 25, 9 and 66% of calories of protein, fat and carbohydrate respectively. Energy content of the feed was 3.4 kcal/g (St-1, Mlýn Kocanda, Czech Republic). Db/db mice and their controls (C57BL/6 background) were obtained from Taconic (Denmark), housed under the same conditions as described above, and fed by Altromin (Taconic, Denmark). ZDF-Lepr^fa/Crl, diabetic fa/fa male rats were obtained from Charles River (France), housed under same conditions as described above, and fed with a Purina 5008 diet (IPS Product Supplies Limited, UK). All experiments followed the ethical guidelines for animal experiments and the law of the Czech Republic Nr. 246/1992.
In experiments with C57BL/6 mice or Wistar rats, food intake was measured with overnight fasted animals in individual cages. Food was withdrawn 17 hours prior to injection of lipidated analog of prolactin releasing peptide (PrRP); free access to water was maintained. The administration of either saline, PrRP, or lipidated analogs was performed by SC injection at doses of 1-10 mg/kg (which corresponded to a volume of 0.2 ml/mouse and 0.1 ml/100 g weight of rat). Fifteen minutes after the lipidated analog of prolactin releasing peptide (PrRP) administration, the mice were given pre-weighed food. The food was then weighed every 30 minutes for 5-10 hours. The administration of each dose was performed at least twice, and each group of mice consisted of at least 6 mice.

rat PrRP receptor = target: T1, rat PrRP receptor (Rattus norvegicus, UniProt Q64121); assay: Competitive binding in RC-4B/C rat pituitary cells (125I-rat PrRP31); details: affinity relative to PrRP31
T1 construct: host or cells: RC-4B/C rat pituitary cell line
T1 sequence (Q64121 1-370): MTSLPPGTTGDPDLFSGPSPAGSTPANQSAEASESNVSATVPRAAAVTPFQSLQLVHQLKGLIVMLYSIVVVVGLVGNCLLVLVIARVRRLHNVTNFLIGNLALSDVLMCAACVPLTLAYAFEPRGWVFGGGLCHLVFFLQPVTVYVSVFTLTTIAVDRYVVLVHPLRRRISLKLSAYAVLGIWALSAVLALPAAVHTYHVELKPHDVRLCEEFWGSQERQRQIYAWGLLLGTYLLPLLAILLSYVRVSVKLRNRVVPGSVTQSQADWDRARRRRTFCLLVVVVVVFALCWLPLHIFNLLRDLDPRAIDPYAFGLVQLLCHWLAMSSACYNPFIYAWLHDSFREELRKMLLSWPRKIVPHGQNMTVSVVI
Method in brief: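 Displacement of rat 125I-PrRP31 ([…]) by test analogs, 10^−11–10^−4 mol·l^−1, on whole RC-4B/C cells, 60 min RT. Bound counts measured by γ-counter in duplicate, ≥3 repeats, analyzed by nonlinear one-site binding regression.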

[1] = target: T2, human PrRP receptor GPR10 (Homo sapiens, UniProt P49683); assay: Competitive binding in CHO cells transfected with human GPR10 (human 125I-PrRP31); details: affinity relative to PrRP31
T2 construct: host or cells: CHO cells
T2 sequence (P49683 1-370): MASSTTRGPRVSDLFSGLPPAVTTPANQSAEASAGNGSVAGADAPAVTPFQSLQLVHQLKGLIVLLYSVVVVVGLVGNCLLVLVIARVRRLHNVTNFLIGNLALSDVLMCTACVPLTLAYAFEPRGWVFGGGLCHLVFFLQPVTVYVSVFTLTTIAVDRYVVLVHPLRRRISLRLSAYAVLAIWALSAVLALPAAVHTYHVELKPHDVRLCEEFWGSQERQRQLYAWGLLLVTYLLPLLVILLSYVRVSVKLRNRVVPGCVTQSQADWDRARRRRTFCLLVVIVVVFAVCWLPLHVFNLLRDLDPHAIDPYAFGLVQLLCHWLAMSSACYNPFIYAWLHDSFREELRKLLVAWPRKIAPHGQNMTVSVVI
Method in brief: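 Values from one-site nonlinear regression of displacement curves: analogs (final 10^-11 to 10^-4 mol·l^-1) competed with 125I-PrRP31 (final 5×10^-11 mol·l^-1) on adherent human GPR10 CHO cells. Binding ran 1 h at room temperature, pH 7.4 buffer with NaCl, MgCl2, CaCl2, glucose, BSA; cell-bound radioactivity counted after NaOH lysis.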

| % of PrRP31, RC-4B/C rat pituitary cells (rat PrRP receptor) | % of PrRP31, GPR10 human receptor transfected in CHO cells [1] | Structure (SMILES) | Food intake in mice % of saline-treated group (C57BL/6 mice) |
| --- | --- | --- | --- |
| 1264% | 327% | CCCCCCCCCCCC(=O)N[C@@H](CO)C(=O)N[C@@H](CCCNC(=N)N)C(=O)N[C@@H](C)C(=O)N[C@@H](Cc1c[nH]cn1)C(=O)N[C@@H](CCC(N)=O)C(=O)N[C@@H](Cc1c[nH]cn1)C(=O)N[C@@H](CO)C(=O)N[C@@H](CCCC)C(=O)N[C@@H](CCC(=O)O)C(=O)N[C@H](C(=O)N[C@@H](CCCNC(=N)N)C(=O)N[C@H](C(=O)N1CCC[C@H]1C(=O)N[C@@H](CC(=O)O)C(=O)N[C@H](C(=O)N[C@@H](CC(N)=O)C(=O)N1CCC[C@H]1C(=O)N[C@@H](C)C(=O)N[C@@H](Cc1c[nH]c2ccccc12)C(=O)N[C@@H](Cc1ccc(O)cc1)C(=O)N[C@H](C(=O)NCC(=O)N[C@@H](CCCNC(=N)N)C(=O)NCC(=O)N[C@H](C(=O)N[C@@H](CCCNC(=N)N)C(=O)N1CCC[C@H]1C(=O)N[C@H](C(=O)NCC(=O)N[C@@H](CCCNC(=N)N)C(=O)N[C@@H](Cc1ccccc1)C(N)=O)C(C)C)[C@@H](C)CC)[C@@H](C)O)[C@@H](C)CC)[C@@H](C)O)[C@@H](C)O [Analog 6] (Lauroyl-SRAHQHS[Nle]ETRTPDINPAWYTGRGIRPVGRF-NH2) | 22% |
| 714% | 548% | CCCCCCCCCCCCCC(=O)N[C@@H](CO)C(=O)N[C@@H](CCCNC(=N)N)C(=O)N[C@@H](C)C(=O)N[C@@H](Cc1c[nH]cn1)C(=O)N[C@@H](CCC(N)=O)C(=O)N[C@@H](Cc1c[nH]cn1)C(=O)N[C@@H](CO)C(=O)N[C@@H](CCCC)C(=O)N[C@@H](CCC(=O)O)C(=O)N[C@H](C(=O)N[C@@H](CCCNC(=N)N)C(=O)N[C@H](C(=O)N1CCC[C@H]1C(=O)N[C@@H](CC(=O)O)C(=O)N[C@H](C(=O)N[C@@H](CC(N)=O)C(=O)N1CCC[C@H]1C(=O)N[C@@H](C)C(=O)N[C@@H](Cc1c[nH]c2ccccc12)C(=O)N[C@@H](Cc1ccc(O)cc1)C(=O)N[C@H](C(=O)NCC(=O)N[C@@H](CCCNC(=N)N)C(=O)NCC(=O)N[C@H](C(=O)N[C@@H](CCCNC(=N)N)C(=O)N1CCC[C@H]1C(=O)N[C@H](C(=O)NCC(=O)N[C@@H](CCCNC(=N)N)C(=O)N[C@@H](Cc1ccccc1)C(N)=O)C(C)C)[C@@H](C)CC)[C@@H](C)O)[C@@H](C)CC)[C@@H](C)O)[C@@H](C)O [Analog 7] (Myristoyl-SRAHQHS[Nle]ETRTPDINPAWYTGRGIRPVGRF-NH2) | 3% |
| 967% | 128% | CCCCCCCCCCCCCCCC(=O)N[C@@H](CO)C(=O)N[C@@H](CCCNC(=N)N)C(=O)N[C@@H](C)C(=O)N[C@@H](Cc1c[nH]cn1)C(=O)N[C@@H](CCC(N)=O)C(=O)N[C@@H](Cc1c[nH]cn1)C(=O)N[C@@H](CO)C(=O)N[C@@H](CCCC)C(=O)N[C@@H](CCC(=O)O)C(=O)N[C@H](C(=O)N[C@@H](CCCNC(=N)N)C(=O)N[C@H](C(=O)N1CCC[C@H]1C(=O)N[C@@H](CC(=O)O)C(=O)N[C@H](C(=O)N[C@@H](CC(N)=O)C(=O)N1CCC[C@H]1C(=O)N[C@@H](C)C(=O)N[C@@H](Cc1c[nH]c2ccccc12)C(=O)N[C@@H](Cc1ccc(O)cc1)C(=O)N[C@H](C(=O)NCC(=O)N[C@@H](CCCNC(=N)N)C(=O)NCC(=O)N[C@H](C(=O)N[C@@H](CCCNC(=N)N)C(=O)N1CCC[C@H]1C(=O)N[C@H](C(=O)NCC(=O)N[C@@H](CCCNC(=N)N)C(=O)N[C@@H](Cc1ccccc1)C(N)=O)C(C)C)[C@@H](C)CC)[C@@H](C)O)[C@@H](C)CC)[C@@H](C)O)[C@@H](C)O [Analog 8] (Palmitoyl-SRAHQHS[Nle]ETRTPDINPAWYTGRGIRPVGRF-NH2) | 7% |

Further lines, the compound ahead of its results:

| Structure (SMILES) | % of PrRP31, RC-4B/C rat pituitary cells (rat PrRP receptor) | % of PrRP31, GPR10 human receptor transfected in CHO cells [1] | Food intake in mice % of saline-treated group (C57BL/6 mice) |
| --- | --- | --- | --- |
| CCCC[C@H](NC(=O)[C@H](CO)NC(=O)[C@H](Cc1c[nH]cn1)NC(=O)[C@H](CCC(N)=O)NC(=O)[C@H](Cc1c[nH]cn1)NC(=O)[C@H](C)NC(=O)[C@H](CCCNC(=N)N)NC(=O)[C@@H](N)CO)C(=O)N[C@@H](CCC(=O)O)C(=O)N[C@H](C(=O)N[C@@H](CCCNC(=N)N)C(=O)N[C@H](C(=O)N1CCC[C@H]1C(=O)N[C@@H](CC(=O)O)C(=O)N[C@H](C(=O)N[C@@H](CC(N)=O)C(=O)N1CCC[C@H]1C(=O)N[C@@H](C)C(=O)N[C@@H](Cc1c[nH]c2ccccc12)C(=O)N[C@@H](Cc1ccc(O)cc1)C(=O)N[C@H](C(=O)NCC(=O)N[C@@H](CCCNC(=N)N)C(=O)NCC(=O)N[C@H](C(=O)N[C@@H](CCCNC(=N)N)C(=O)N1CCC[C@H]1C(=O)N[C@H](C(=O)NCC(=O)N[C@@H](CCCNC(=N)N)C(=O)N[C@@H](Cc1ccccc1)C(N)=O)C(C)C)[C@@H](C)CC)[C@@H](C)O)[C@@H](C)CC)[C@@H](C)O)[C@@H](C)O [Analog 3] (H-SRAHQHS[Nle]ETRTPDINPAWYTGRGIRPVGRF-NH2) | 385% | 203% | 100% |
| CCCCCCCC(=O)N[C@@H](CO)C(=O)N[C@@H](CCCNC(=N)N)C(=O)N[C@@H](C)C(=O)N[C@@H](Cc1c[nH]cn1)C(=O)N[C@@H](CCC(N)=O)C(=O)N[C@@H](Cc1c[nH]cn1)C(=O)N[C@@H](CO)C(=O)N[C@@H](CCCC)C(=O)N[C@@H](CCC(=O)O)C(=O)N[C@H](C(=O)N[C@@H](CCCNC(=N)N)C(=O)N[C@H](C(=O)N1CCC[C@H]1C(=O)N[C@@H](CC(=O)O)C(=O)N[C@H](C(=O)N[C@@H](CC(N)=O)C(=O)N1CCC[C@H]1C(=O)N[C@@H](C)C(=O)N[C@@H](Cc1c[nH]c2ccccc12)C(=O)N[C@@H](Cc1ccc(O)cc1)C(=O)N[C@H](C(=O)NCC(=O)N[C@@H](CCCNC(=N)N)C(=O)NCC(=O)N[C@H](C(=O)N[C@@H](CCCNC(=N)N)C(=O)N1CCC[C@H]1C(=O)N[C@H](C(=O)NCC(=O)N[C@@H](CCCNC(=N)N)C(=O)N[C@@H](Cc1ccccc1)C(N)=O)C(C)C)[C@@H](C)CC)[C@@H](C)O)[C@@H](C)CC)[C@@H](C)O)[C@@H](C)O [Analog 4] (Octanoyl-SRAHQHS[Nle]ETRTPDINPAWYTGRGIRPVGRF-NH2) | 503% | 254% | 94% |
| CCCCCCCCCC(=O)N[C@@H](CO)C(=O)N[C@@H](CCCNC(=N)N)C(=O)N[C@@H](C)C(=O)N[C@@H](Cc1c[nH]cn1)C(=O)N[C@@H](CCC(N)=O)C(=O)N[C@@H](Cc1c[nH]cn1)C(=O)N[C@@H](CO)C(=O)N[C@@H](CCCC)C(=O)N[C@@H](CCC(=O)O)C(=O)N[C@H](C(=O)N[C@@H](CCCNC(=N)N)C(=O)N[C@H](C(=O)N1CCC[C@H]1C(=O)N[C@@H](CC(=O)O)C(=O)N[C@H](C(=O)N[C@@H](CC(N)=O)C(=O)N1CCC[C@H]1C(=O)N[C@@H](C)C(=O)N[C@@H](Cc1c[nH]c2ccccc12)C(=O)N[C@@H](Cc1ccc(O)cc1)C(=O)N[C@H](C(=O)NCC(=O)N[C@@H](CCCNC(=N)N)C(=O)NCC(=O)N[C@H](C(=O)N[C@@H](CCCNC(=N)N)C(=O)N1CCC[C@H]1C(=O)N[C@H](C(=O)NCC(=O)N[C@@H](CCCNC(=N)N)C(=O)N[C@@H](Cc1ccccc1)C(N)=O)C(C)C)[C@@H](C)CC)[C@@H](C)O)[C@@H](C)CC)[C@@H](C)O)[C@@H](C)O [Analog 5] (Decanoyl-SRAHQHS[Nle]ETRTPDINPAWYTGRGIRPVGRF-NH2) | 758% | 266% | 57% |

— US10350271B2, “Lipidated peptides for lowering blood glucose” (USTAV ORGANICKE CHEMIE A BIOCHEMIE AKADEMIE VED CR, V.V.I., priority 2014, dated 2019)
